This is an account of results in patent EP0400190A1, “New water-soluble derivatives of nabumetone, a process for their preparation and pharmaceutical compositions which contain them” (MAGIS FARMACEUTICI S.p.A., priority 1989, dated 1990).

Test [1] deals with mice. Kind of test: Analgesic activity, Writhing test using p-phenylquinone. In kind it is in vivo. To be noted: Mus musculus, po, mice treated orally, read-out: ED₅₀. On the procedure:
The analgesic activity was measured by the Writhing test using p-phenylquinone on mice treated orally with the nabumetone enamines in comparison with acetylsalicylic acid, the results showing an ED₅₀ (mg/Kg) for the enamines of about 80 whereas for acetylsalicylic acid the value is about 106.1.
Background: Writhing tests count abdominal constrictions after an irritant is injected.

In test [2] the test system is edema induced in the rat by formalin. Kind of test: Anti-inflammatory activity on formalin-induced edema. Format: in vivo. Conditions: read-out: ED₅₀. The text has this:
The anti-inflammatory activity of these enamines was studied in comparison with acetylsalicylic acid on edema induced in the rat by formalin.

Structures are written as SMILES.

On to `CC(=O)Oc1ccccc1C(=O)O` [acetylsalicylic acid], for which the ED50 in test [1] is ~106 mg/kg; in test [2] it was ~313 mg/kg.
